Measurements taken from patent publication US9522163B2, “Methods of treating hepatitis” (priority 2002, dated 2016).

What was measured:
[1] = test system: TNF-α/D-gal-induced liver injury
Method: Male C57BL/6J ([…], Bar Harbor, Me.), 8-12-wk-old inos^−/− mice and wild type littermates (bred/maintained at the University of Pittsburgh) were used for in vivo experiments.
10 mg/kg subcutaneously (s.c.), Alexis Biochem., San Diego, Calif.) or cobalt protoporphyrin (CoPP, 5 mg/kg, intraperitoneally (i.p.), Frontier Scientific, Logan, Utah). […] Where indicated, acetaminophen (Sigma Chem. Co.; St Louis, Mo.) was administered (500 mg/kg, i.p.).
A CO analyzer (Interscan, Chatsworth, Calif.) was used to measure CO levels continuously in the chamber. CO concentrations were maintained at 250 ppm at all times. Mice were placed in the exposure chamber as required.
Whether HO-1 is protective against acute hepatic failure was investigated. Cobalt protoporphyrin (5 mg/kg, i.p.) was administered to male C57BL/6J mice. Twenty-four hours later, TNF-α/D-gal (0.3 μg/8 mg/mouse, i.p., respectively) was administered to the mice. Serum alanine aminotransferase (ALT) levels in the mice were measured 8 hours after administration of TNF-α/D-gal.
After receiving TNF-α/D-gal, mice were returned to the CO exposure chamber and their serum was analyzed for ALT levels 6-8 hr later.
To generate the data presented in FIGS. 11A-11H, liver samples from mice treated with TNF-α/D-gal in the presence and absence of CO (250 ppm) for 8 hr were sectioned and stained for hematoxylin & eosin (H&E), activated caspase 3 (as indicated by an increase in red intensity), and for TUNEL positive cells (as demarcated by the increased green cellular staining; a marker of cell death). Nuclei stained blue.
L-NIL was administered 2 hr prior to CO. CO-treated animals were then pre-treated (250 ppm) for 1 hr prior to TNF-α/D-gal.
VP was selectively designed to deliver NO directly to the liver. One hour after the initial VP dose, the animals were exposed to CO for 1 hr prior to administration of TNF-α/D-gal (see above). Serum ALT levels were determined 6-8 hr later.
These mice and inos^−/− mice were then administered CoPP. L-NIL was maintained in the water throughout the experiment. Control and inos^−/− mice received normal drinking water. Twenty-four hr after administration of CoPP, TNF-α/D-gal was administered and serum ALT determined 6-8 hr later.

[2] = test system: hemorrhagic shock liver injury; experiment: Murine model of hemorrhagic shock, liver injury; type: in vivo; conditions: inhaled CO during resuscitation after 2.5 hour shock phase; at 24 hr
[3] = test system: human primary hepatocytes; experiment: TNF-α/ActD-induced cell death in human hepatocytes; type: cell-based; conditions: exposure to CO
Method: (§1) Cells were treated with TNF-α (10 ng/ml) and actinomycin-D (Act-D; 200 ng/ml, Sigma Chemical Co. St. Louis, Mo.) to induce cell death.
To generate the data presented in FIG. 3, human primary hepatocytes obtained from a donor liver resection were treated with CO and TNF-α/ActD as described above.

primary rat hepatocytes = experiment: TNF-α induced apoptosis in rat hepatocytes; type: cell-based; conditions: exposure to CO
Method: as §1
Thus, the effects of CO were independent of the cGMP/p38 MAPK pathway. In these experiments, hepatocytes were pre-treated with CO for one hour prior to addition of TNF-α/ActD to the medium.

NF-κB = NF-κB luciferase reporter assay in hepatocytes; type: cell-based, mouse; conditions: CO 250 ppm; reporter activity peaked one hour after placing cells in CO
Method: (§2) In some experiments, gene transfer of an IκBα superrepressor (Hellerbrand et al., Hepatology 27:1285-1295 (1998)) or β-galactosidase using adenoviral vectors (10 pfu/cell) was performed 12 hours prior to TNF-α/ActD treatment. NF-κB activation was evaluated using a luciferase reporter assay as described in Chow et al. (J. Biol. Chem. 274: 10689-10692 (1999)). Briefly, hepatocytes were co-transfected with NF-κB reporter constructs (pGL3-kappaβ luciferase, 100 ng/well; and pIEP-Lac-z 0.5 μg/well) using Lipofectin™ (Invitrogen, Carlsbad, Calif.) as instructed by the manufacturer. Evaluation of iNOS expression was performed using a luciferase reporter assay as described in Lowenstein et al. (Proc. Natl. Acad. Sci. U.S.A 90: 9730-9734 (1993)). Briefly, hepatocytes were co-transfected with iNOS promoter reporter constructs (pXP2; 1 μg/well) and pIEP-LacZ (0.5 μg/well) as described above.
Hepatocytes were transfected with plasmids as described above and treated with various stimuli 24 hours after transfection. […] Results were corrected for transfection efficiency and protein concentration.
To generate the data presented in FIG. 4, evaluation of NF-κB activation was performed using a luciferase reporter assay as described in Chow et al. (J. Biol. Chem. 274: 10689-10692 (1999)). […]

iNOS [4] = experiment: iNOS promoter luciferase reporter assay in hepatocytes; type: cell-based; conditions: CO 250 ppm
Method: as §2
Hepatocytes were transfected with plasmids as described above and treated with various stimuli 24 hours after transfection. Luciferase activity (reported as arbitrary units; A.U.) was assayed 6 hours after initiation of treatment, using a luciferase assay kit (Promega, Madison, Wis.) and a Berthold Luminometer. Results were corrected for transfection efficiency and protein concentration. […]

iNOS [5] = experiment: iNOS protein immunoblot in hepatocytes; type: cell-based; conditions: TNF-α/ActD 6-8 hr in presence of CO 250 ppm vs TNF-α alone
Method: Western blot analysis was performed on primary hepatocytes in culture or from liver homogenates with antibodies to iNOS (Transduction Laboratories, Lexington, Ky.; 1:1000), HO-1 (Calbiochem; 1:2000), or β-actin (Sigma Chemical; 1:5000). Thirty μg protein in cell culture experiments or 100 μg protein from liver homogenates was loaded per well for SDS-PAGE.
To generate the data in FIG. 8, expression of iNOS protein was evaluated using immunoblotting techniques. Briefly, cell extracts from hepatocytes were treated with TNF-α/ActD for 6-8 hr in the presence and absence of CO (250 ppm). Control cells received air or CO alone.

[6] = CO 250 ppm for 8 hr, TNF-α/D-gal

[C-]#[O+] [CO, carbon monoxide]
TNF-α/D-gal-induced liver damage by H&E staining ([1]; CO 250 ppm for 8 hr): markedly reduced | Staining of activated caspase-3 in liver [1, 6]: less staining | TUNEL positive cells in liver [1, 6]: fewer TUNEL positive cells | Serum ALT lower than in air-exposed mice ([1]; CO 250 ppm, 1 hr pre-treatment and continued, ALT 6-8 hr after TNF-α/D-gal): 74% | Protection against liver damage (serum ALT, histopathology) in absence of iNOS function/expression ([1]; CO 250 ppm, inos−/− mice and wild type mice treated with L-NIL 5 mg/kg i.p. every two hours): unable to protect against liver damage | Reduction in serum ALT [2]: > 65% | TNF-α induced apoptosis [3]: inhibited TNF-α induced apoptosis | TNF-α induced apoptosis (primary rat hepatocytes): inhibited TNF-α induced apoptosis | NF-κB activation (luciferase reporter, EMSA, immunostaining) (NF-κB): moderate increase | iNOS luciferase reporter activity (iNOS [4]): highly significant increase in activity | iNOS protein (iNOS [5]): markedly increased
